Results as given in patent US9686984B2, “Macrocyclic picolinamides as fungicides” (DOW AGROSCIENCES LLC, priority 2014, dated 2017).

Experiments:
Assay type in all cases: in vivo
Settings in all cases: 100 ppm, 1 Day Protectant
Glomerella lagenarium = test: Cucumber Anthracnose (COLLLA) disease control
Description: Technical grades of materials were dissolved in acetone, which were then mixed with nine volumes of water containing 110 ppm Triton X-100. The fungicide solutions were applied onto wheat seedlings using an automated booth sprayer to run-off. All sprayed plants were allowed to air dry prior to further handling. All fungicides were evaluated using the aforementioned method for their activity vs. all target diseases, unless stated otherwise. Wheat leaf blotch and brown rust activity were also evaluated using track spray applications, in which case the fungicides were formulated as EC formulations, containing 0.1% Trycol 5941 in the spray solutions. Wheat plants (variety Yuma) were grown from seed in a greenhouse in 50% mineral soil/50% soil-less Metro mix until the first leaf was fully emerged, with 7-10 seedlings per pot. These plants were inoculated with an aqueous spore suspension of Septoria tritici either prior to or after fungicide treatments. After inoculation the plants were kept in 100% relative humidity (one day in a dark dew chamber followed by two to three days in a lighted dew chamber at 20° C.) to permit spores to germinate and infect the leaf. The plants were then transferred to a greenhouse set at 20° C. for disease to develop. When disease symptoms were fully expressed on the 1st leaves of untreated plants, infection levels were assessed on a scale of 0 to 100 percent disease severity. Percent disease control was calculated using the ratio of disease severity on treated plants relative to untreated plants. Example N: Evaluation of Fungicidal Activity: Cucumber Anthracnose (Glomerella lagenarium; Anamorph: Colletotrichum lagenarium; Bayer Code COLLLA) Cucumber seedlings (variety Bush Pickle) were propagated in soil-less Metro mix, with each pot having one plant, and used in the test when 12 to 14 days old. Test plants were inoculated with an aqueous spore suspension of Colletotrichum lagenarium 24 hr after fungicide treatments. […]

Cercospora beticola = test: Leaf Spot of Sugar Beets (CERCBE) disease control
Description: Technical grades of materials were dissolved in acetone, which were then mixed with nine volumes of water containing 110 ppm Triton X-100. The fungicide solutions were applied onto wheat seedlings using an automated booth sprayer to run-off. All sprayed plants were allowed to air dry prior to further handling. All fungicides were evaluated using the aforementioned method for their activity vs. all target diseases, unless stated otherwise. Wheat leaf blotch and brown rust activity were also evaluated using track spray applications, in which case the fungicides were formulated as EC formulations, containing 0.1% Trycol 5941 in the spray solutions. Wheat plants (variety Yuma) were grown from seed in a greenhouse in 50% mineral soil/50% soil-less Metro mix until the first leaf was fully emerged, with 7-10 seedlings per pot. These plants were inoculated with an aqueous spore suspension of Septoria tritici either prior to or after fungicide treatments. After inoculation the plants were kept in 100% relative humidity (one day in a dark dew chamber followed by two to three days in a lighted dew chamber at 20° C.) to permit spores to germinate and infect the leaf. The plants were then transferred to a greenhouse set at 20° C. for disease to develop. When disease symptoms were fully expressed on the 1st leaves of untreated plants, infection levels were assessed on a scale of 0 to 100 percent disease severity. Percent disease control was calculated using the ratio of disease severity on treated plants relative to untreated plants. Example G: Evaluation of Fungicidal Activity: Leaf Spot of Sugar Beets (Cercospora Beticola; Bayer Code CERCBE) Sugar beet plants (variety HH88) were grown in soil-less Metro mix and trimmed regularly to maintain a uniform plant size prior to test. Plants were inoculated with a spore suspension 24 hr after fungicide treatments. Inoculated plants were kept in a dew chamber at 22° C. for 48 hr then incubated in a greenhouse set at 24° C. under a clear plastic hood with bottom ventilation until disease symptoms were fully expressed. […]

[1] = system: Blumeria graminis f. sp. hordei; test: Barley Powdery Mildew (ERYSGH) disease control
Description: Technical grades of materials were dissolved in acetone, which were then mixed with nine volumes of water containing 110 ppm Triton X-100. The fungicide solutions were applied onto wheat seedlings using an automated booth sprayer to run-off. All sprayed plants were allowed to air dry prior to further handling. All fungicides were evaluated using the aforementioned method for their activity vs. all target diseases, unless stated otherwise. Wheat leaf blotch and brown rust activity were also evaluated using track spray applications, in which case the fungicides were formulated as EC formulations, containing 0.1% Trycol 5941 in the spray solutions. Wheat plants (variety Yuma) were grown from seed in a greenhouse in 50% mineral soil/50% soil-less Metro mix until the first leaf was fully emerged, with 7-10 seedlings per pot. These plants were inoculated with an aqueous spore suspension of Septoria tritici either prior to or after fungicide treatments. After inoculation the plants were kept in 100% relative humidity (one day in a dark dew chamber followed by two to three days in a lighted dew chamber at 20° C.) to permit spores to germinate and infect the leaf. The plants were then transferred to a greenhouse set at 20° C. for disease to develop. When disease symptoms were fully expressed on the 1st leaves of untreated plants, infection levels were assessed on a scale of 0 to 100 percent disease severity. Percent disease control was calculated using the ratio of disease severity on treated plants relative to untreated plants. Example J: Evaluation of Fungicidal Activity: Barley Powdery Mildew (Blumeria graminis f. sp. hordei; Synonym: Erysiphe graminis f. sp. hordei; Bayer Code […]) Barley seedlings (variety Harrington) were propagated in soil-less Metro mix, with each pot having 8 to 12 plants, and used in the test when first leaf was fully emerged. Test plants were inoculated by dusting with infected stock plants 24 hr after fungicide treatments. After inoculation the plants were kept in a greenhouse set at 20° C. for disease to develop. […]

Row | SMILES | COLLLA disease control, 1DP (Glomerella lagenarium) | CERCBE disease control, 1DP (Cercospora beticola) | ERYSGH disease control, 1DP [1]
1 | CCCC[C@H]1OCC[C@H](NC(=O)c2nccc(OC)c2OC(C)=O)C(=O)O[C@@H](C)[C@@H]1Cc1ccccc1 [Compound 2] | A (>70) | A (>70) | B (≦70)
2 | COc1ccnc(C(=O)N[C@H]2CCO[C@H](Cc3ccccc3)[C@@H](Cc3ccccc3)[C@H](C)OC2=O)c1OC(C)=O [Compound 3] | A (>70) | A (>70) | B (≦70)
3 | CCC[C@H]1OCC[C@H](NC(=O)c2nccc(OC)c2OCOC(C)=O)C(=O)O[C@@H](C)[C@@H]1Cc1ccccc1 [Compound 17] | A (>70) | A (>70) | B (≦70)
